Results from PubChem BioAssay AID1919014 (Molecular Pharmacology Branch, DTP, NCI, 2023).

Tested on: NCI-H1341 complex spheroids, percent test/control
Experiment: Anticancer human tumor NCI-H1341 cell line growth inhibition [AhR];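 note: spheroids exposed to agents for seven days before readout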
Conditions: for IC50: curve of first compound; for viability, T/C: stronger effect = lower value
Text: Multicellular complex tumor spheroid response to aryl hydrocarbon receptor antagonists in combination with a variety of drugs and investigational agents in selected tumor cell lines
The current study was undertaken to assess response to aryl hydrocarbon receptor antagonists in combination with standard-of-care drugs and investigational agents in solid tumor complex spheroid models. Complex spheroids include a stromal component modeled by human endothelial cells (HUVEC) and fibroblasts modeled by human mesenchymal stem cells (MSCs). The concentration ranges selected for each drug and investigational agent were based upon clinically achievable concentrations if the clinical Cmax of the agent was known.
Compounds. The drugs and investigational agents: BAY 2416964 (NSC825713), GNF351 (NSC835774), CH-223191 (NSC835775), CPI-455 (NSC825282), aza-TdCyd (NSC777586), decitabine (NSC127716), belinostat (NSC758774), entinostat (NSC756642), pevonedistat (NSC761192), tazemetostat (NSC777109), talazoparib (NSC765396), olaparib (NSC753686), selinexor (NSC780203), nedisertib (M3814, NSC802822), bortezomib (NSC756655), venetoclax (NSC766270), doxorubicin (NSC123127), elimusertib (BAY189344, NSC800525), ceralasertib (AZD6738, NSC777638), TAK-243 (NSC785004), alisertib (NSC759677), etoposide (NSC141540), topotecan (NSC609699), eribulin (NSC707389), gemcitabine (NSC613327), carboplatin (NSC241240), cisplatin (NSC119875), and SN-38 (NSC673596) were obtained from the National Cancer Institute (NCI) Developmental Therapeutics Program Chemical Repository (32). The FDA-approved anticancer drug set is available from the Developmental Therapeutics Program at https://dtp.cancer.gov/organization/dscb/obtaining/available plates.htm. […] The stock solutions were prepared in dimethyl sulfoxide (DMSO, Sigma-Aldrich, St. Louis, MO, cat. D2650), except for the platinum compounds which were prepared in saline (Quality Biological, Gaithersburg, MD, cat. 114-055-101), at 800-fold the tested concentration and stored at -70 degrees C prior to their use. All drugs and investigational agents were tested over a range starting from a high concentration at or near the clinical Cmax and decreasing in half-log increments. If the clinical Cmax for an agent had not been determined, the highest concentration tested was 10 microM (Table 1).
Cell Culture. All cells were maintained in an incubator at 37 degrees C and 5% CO2 with 95% humidity. The PDC lines were cultured according to standard operating procedures established by the NCI PDMR (https://pdmr.cancer.gov). Briefly, all PDCs were thawed and cultured in Matrigel-coated flasks prepared with a working solution of 1X Ham's F-12 nutrient mix, without supplementation (Invitrogen, Waltham, MA, cat. 11765054), 100 U/mL penicillin-streptomycin (Invitrogen, cat. 15140122), and 2.5% Matrigel (Corning Inc., Corning, NY, cat. 354248) for the first three passages. All PDCs were cultured in complete DMEM/F-12 media containing advanced DMEM/F-12 (Invitrogen, cat. 12634028), 4.9% defined fetal bovine serum, heat inactivated (HyClone Laboratories Inc., Logan, UT, cat. SH30070.03HI), 389 ng/mL hydrocortisone (Sigma-Aldrich, cat. H4001), 9.7 ng/mL human EGF recombinant protein (Invitrogen, cat. PHG0313), 23.4 microg/mL adenine (Sigma-Aldrich, cat. A2786), 97.3 U/mL penicillin-streptomycin (Invitrogen, cat. 15140122), 1.9 mM L-glutamine (Invitrogen, cat. 25030081), and 9.7 microM Y-27632 dihydrochloride (Tocris Bioscience, Bristol, United Kingdom, cat. 1254). The PDCs were cultured in complete DMEM/F12 media without 10 microM Y-27632 dihydrochloride for at least two passages prior to the screen. The established cell lines NCI-H1341 and […] were cultured in DMEM/F-12, HEPES (Invitrogen, cat. 11330032), 5% defined fetal bovine serum (HyClone Laboratories Inc., cat. SH30070.03), ITS premix universal culture supplement [insulin (5 microg/mL), transferrin (5 microg/mL), and selenious acid (5 ng/mL)] […]

[1] = second compound 0.1 µM, first compound 0.0316 µM
[2] = second compound 0.1 µM, first compound 0.1 µM
[3] = second compound 0.1 µM, first compound 0.316 µM
[4] = second compound 0.1 µM, first compound 1 µM
[5] = second compound 0.1 µM, first compound 3.16 µM
[6] = second compound 0.1 µM, first compound 10 µM
[7] = second compound 0.316 µM, first compound 0.0316 µM
[8] = second compound 0.316 µM, first compound 0.1 µM
[9] = second compound 0.316 µM, first compound 0.316 µM
[10] = second compound 0.316 µM, first compound 1 µM
[11] = second compound 0.316 µM, first compound 3.16 µM
[12] = second compound 0.316 µM, first compound 10 µM
[13] = second compound 1 µM, first compound 0.0316 µM
[14] = second compound 1 µM, first compound 0.1 µM
[15] = second compound 1 µM, first compound 0.316 µM
[16] = second compound 1 µM, first compound 1 µM
[17] = second compound 1 µM, first compound 3.16 µM
[18] = second compound 1 µM, first compound 10 µM
[19] = second compound 3.16 µM, first compound 0.0316 µM
[20] = second compound 3.16 µM, first compound 0.1 µM
[21] = second compound 3.16 µM, first compound 0.316 µM
[22] = second compound 3.16 µM, first compound 1 µM
[23] = second compound 3.16 µM, first compound 3.16 µM
[24] = second compound 3.16 µM, first compound 10 µM
[25] = second compound 10 µM, first compound 0.0316 µM
[26] = second compound 10 µM, first compound 0.1 µM
[27] = second compound 10 µM, first compound 0.316 µM
[28] = second compound 10 µM, first compound 1 µM
[29] = second compound 10 µM, first compound 3.16 µM
[30] = second compound 10 µM, first compound 10 µM

CC(C)CC(NC(=O)C(Cc1ccccc1)NC(=O)c1cnccn1)B(O)O (stereo not given) + CC(CO)NC(=O)c1cc(-c2ccc(Cl)cc2)nn(-c2cnn(C)c2)c1=O
IC50 (second compound 0.1 µM): 4.61 nM
IC50 (second compound 0.316 µM): 4.3 nM
IC50 (second compound 1 µM): 4.31 nM
IC50 (second compound 3.16 µM): 3.55 nM
IC50 (second compound 10 µM): 3.81 nM
viability, T/C (second compound 0.1 µM, first compound 0.000949 µM): 89.8%
viability, T/C (second compound 0.1 µM, first compound 0.003 µM): 79.2%
viability, T/C (second compound 0.1 µM, first compound 0.00949 µM): 0.86%
viability, T/C (second compound 0.1 µM, first compound 0.03 µM): 0.08%
viability, T/C (second compound 0.1 µM, first compound 0.0949 µM): 0.36%
viability, T/C (second compound 0.1 µM, first compound 0.3 µM): 0.13%
viability, T/C (second compound 0.316 µM, first compound 0.000949 µM): 88.1%
viability, T/C (second compound 0.316 µM, first compound 0.003 µM): 72.6%
viability, T/C (second compound 0.316 µM, first compound 0.00949 µM): 0.3%
viability, T/C (second compound 0.316 µM, first compound 0.03 µM): 0.06%
viability, T/C (second compound 0.316 µM, first compound 0.0949 µM): 0.04%
viability, T/C (second compound 0.316 µM, first compound 0.3 µM): 0.68%
viability, T/C (second compound 1 µM, first compound 0.000949 µM): 70.3%
viability, T/C (second compound 1 µM, first compound 0.003 µM): 75%
viability, T/C (second compound 1 µM, first compound 0.00949 µM): 0.31%
viability, T/C (second compound 1 µM, first compound 0.03 µM): 0.09%
viability, T/C (second compound 1 µM, first compound 0.0949 µM): 1.13%
viability, T/C (second compound 1 µM, first compound 0.3 µM): 0.28%
viability, T/C (second compound 3.16 µM, first compound 0.000949 µM): 86.3%
viability, T/C (second compound 3.16 µM, first compound 0.003 µM): 58.4%
viability, T/C (second compound 3.16 µM, first compound 0.00949 µM): 0.91%
viability, T/C (second compound 3.16 µM, first compound 0.03 µM): 0.08%
viability, T/C (second compound 3.16 µM, first compound 0.0949 µM): 0.98%
viability, T/C (second compound 3.16 µM, first compound 0.3 µM): 0.6%
viability, T/C (second compound 10 µM, first compound 0.000949 µM): 83.4%
viability, T/C (second compound 10 µM, first compound 0.003 µM): 62.9%
viability, T/C (second compound 10 µM, first compound 0.00949 µM): 1.02%
viability, T/C (second compound 10 µM, first compound 0.03 µM): 0.15%
viability, T/C (second compound 10 µM, first compound 0.0949 µM): 0.12%
viability, T/C (second compound 10 µM, first compound 0.3 µM): 0.45%

Nc1ccccc1NC(=O)c1ccc(CNC(=O)OCc2cccnc2)cc1 + CC(CO)NC(=O)c1cc(-c2ccc(Cl)cc2)nn(-c2cnn(C)c2)c1=O
IC50 (second compound 0.1 µM): 144 nM
IC50 (second compound 0.316 µM): 204 nM
IC50 (second compound 1 µM): 187 nM
IC50 (second compound 3.16 µM): 133 nM
IC50 (second compound 10 µM): 52.3 nM
viability, T/C [1]: 66.7%
viability, T/C [2]: 58.1%
viability, T/C [3]: 34.4%
viability, T/C [4]: 14.8%
viability, T/C [5]: 6.51%
viability, T/C [6]: 0.25%
viability, T/C [7]: 74.3%
viability, T/C [8]: 60.1%
viability, T/C [9]: 45%
viability, T/C [10]: 15.6%
viability, T/C [11]: 6.91%
viability, T/C [12]: 0.6%
viability, T/C [13]: 60.9%
viability, T/C [14]: 64%
viability, T/C [15]: 40%
viability, T/C [16]: 16.7%
viability, T/C [17]: 8.93%
viability, T/C [18]: 0.42%
viability, T/C [19]: 63.4%
viability, T/C [20]: 57.3%
viability, T/C [21]: 31.3%
viability, T/C [22]: 12.1%
viability, T/C [23]: 6.39%
viability, T/C [24]: 0.79%
viability, T/C [25]: 56.6%
viability, T/C [26]: 41.3%
viability, T/C [27]: 26.4%
viability, T/C [28]: 12.6%
viability, T/C [29]: 4.04%
viability, T/C [30]: 0.25%

O=C(C=Cc1cccc(S(=O)(=O)Nc2ccccc2)c1)NO + CC(CO)NC(=O)c1cc(-c2ccc(Cl)cc2)nn(-c2cnn(C)c2)c1=O
IC50 (second compound 0.1 µM): 230 nM
IC50 (second compound 0.316 µM): 278 nM
IC50 (second compound 1 µM): 258 nM
IC50 (second compound 3.16 µM): 262 nM
IC50 (second compound 10 µM): 163 nM
viability, T/C [1]: 73.7%
viability, T/C [2]: 65.4%
viability, T/C [3]: 41.8%
viability, T/C [4]: 27.1%
viability, T/C [5]: 4.5%
viability, T/C [6]: 0.64%
viability, T/C [7]: 81.9%
viability, T/C [8]: 65.6%
viability, T/C [9]: 48.6%
viability, T/C [10]: 27.8%
viability, T/C [11]: 5.91%
viability, T/C [12]: 0.46%
viability, T/C [13]: 84.8%
viability, T/C [14]: 68.1%
viability, T/C [15]: 45.7%
viability, T/C [16]: 25.5%
viability, T/C [17]: 5.09%
viability, T/C [18]: 1.14%
viability, T/C [19]: 78.9%
viability, T/C [20]: 63.3%
viability, T/C [21]: 49.7%
viability, T/C [22]: 21.9%
viability, T/C [23]: 5.78%
viability, T/C [24]: 0.71%
viability, T/C [25]: 70.6%
viability, T/C [26]: 52.7%
viability, T/C [27]: 44.5%
viability, T/C [28]: 20.3%
viability, T/C [29]: 5.56%
viability, T/C [30]: 0.44%
